Assays:
[1] = Adverse effects: food consumption, weight gain, body weights in transplanted NOD mice; assay type: in vivo
Procedure: (§1) Mice were treated with either 400 picograms of 2AMD/mouse/day or with vehicle. 2AMD was administered by addition of the analog in the vehicle to LabDiet 5K52 (PMI Nutrition, Brentwood, Miss.). In order to deliver the designated dose of 2AMD, a stock solution of the analog was dissolved in EtOH, vortexed for 3 min, and the analog concentration was determined by spectrophotometry. Based on pre-determined diet consumption, diet was prepared to provide 400 pg of 2AMD/mouse/day. The diets were solidified with molten agar (USB Corporation, Cleveland, Ohio). Controls were fed diet prepared as described above but the vehicle containing no 2AMD. Mice in each group were fed either 2AMD diet or vehicle diet from the day of diabetes determination until the completion of the study.

Female NOD mice = test: Islet transplantation in spontaneously diabetic NOD mice: duration of normoglycemia / graft survival; assay type: in vivo; settings: for Duration of Normoglycemia: 2 mice; for diabetes reversal / indefinite survival of syngeneic islet grafts: 400 pg/mouse/day
[2] = tested on: insulin-2 knockout non-obese diabetic mouse; settings: rodent model of spontaneous T1D; Kiekhaefer et al. 2011; cited from earlier work
[3] = Serum calcium analysis in transplanted NOD mice; assay type: in vivo; settings: 400 pg/day
Procedure: as §1
Blood was collected from the orbital sinus 3 weeks after initiation of control or 2AMD treatment and every 3 weeks thereafter. Blood samples were spun at 2,938 g for 15 min, followed by a second and third spin at 16,883 g, each for 2 min. Serum calcium levels were determined by atomic absorption in 0.1% LaCl3.

[4] = chow-based diet, 800 islet equivalents
[5] = purified diet, 400 islet equivalents

In the case of “2α-methyl-19-nor-(20S)-1α,25-dihydroxyvitamin D3 [2AMD]”, the “adverse effects as revealed by food consumption, weight gain and comparative body weights” value ([1]; 400 pg/day, chow-based diet, 800 islet equivalents) is reported as “No adverse effects”, the “food consumption, weight gain, and comparative body weights” value ([1]; 2AMD purified diet group, 400 islet equivalents, attributed to hydration of two dietary components (early satiety), reversed after replacement at week 22) is reported as “reduced” and the “Duration of Normoglycemia” value (Female NOD mice; chow diet, 400 islet equivalents, 400 pg 2AMD/mouse/day, vehicle control 28 days) is reported as no less than 83 days. The Duration of Normoglycemia (Female NOD mice; chow-based diet, 800 islet equivalents, 400 pg 2AMD/mouse/day in diet, vehicle control 110 days) was greater than 230 days, the diabetes reversal (Female NOD mice; [4]) was 100% and the “indefinite survival of syngeneic islet grafts” value (Female NOD mice; [4]) was 100%. The “additional days of continuing normoglycemia compared to the untreated control” value (Female NOD mice; murine model, 2AMD treatment vs untreated control) was “at least 130 days”, the diabetes reversal (Female NOD mice; [5]) was 100% and the “indefinite survival of syngeneic islet grafts” value (Female NOD mice; [5]) was 100%. For the same substance, the “effect on development of type 1 diabetes” value [2] was “prevented the transition from insulitis to diabetes”, the average serum calcium ([3]; chow diet, 400 islet equivalents, control 10.0 mg/dl) was 10.7 mg/dL and the average serum calcium ([3]; chow-based diet, 800 islet equivalents, control mice 9.8 mg/dl) was 10.3 mg/dL. It also gave an average serum calcium ([3]; purified diet, 400 islet equivalents, control 10.0 mg/dl) of 10.8 mg/dL.

Source: US20130295083A1, “2a-Methyl-19-nor-(20S)-1a,25-dihydroxyvitamin D3 (2AMD) or 2 methylene-19-nor-(20S)-1a,25-dihydroxyvitamin D3 (2MD) Support Survival and Function of Transplanted Islet Cells In Type 1 Diabetes” (Wisconsin Alumni Research Foundation, priority 2012, published 2013)
